Laboratory results: patent US20240246960A1 (adMare Therapeutics Society, priority 2021, published 2024)

Target: T1, DNA-PK phosphorylation at Serine 2056 (Homo sapiens, UniProt P78527)
T1 construct: host or cells: FaDu
Experiment: Cellular Assay for Inhibition of DNA-PK Phosphorylation at Serine 2056 (FaDu cells, neocarzinostatin, sandwich ELISA)
Type: cell-based
Conditions: Table 3
Method: FaDu cells were purchased from ATCC and maintained in MEM alpha medium (Life Technologies, cat. no. 12561) supplemented with 10% fetal bovine serum, and 1% GlutaMAX at 37° C. supplemented with 5% CO2. 50,000 cells were seeded to each well of a 96-well cell culture plate in 50 μL of culture medium and incubated for 16-24 hours. Three-fold serially diluted compounds were prepared in DMSO. Culture media was used to prepare compound treatments to 0.3% DMSO (dimethyl sulphoxide) content. Compound treatments were added to the cells for 1 hour prior incubation, followed by the addition of neocarzinostatin in fresh culture medium to 1 μg/mL final concentration for an additional 2 hours incubation to induce DNA DSBs (double-strand breaks). DMSO controls were incubated with fresh culture medium alone for the additional two hours incubation. The cells were then lysed and frozen at −20° C. Cell lysates were thawed on wet ice and protein concentrations quantified by BCA Protein Assay (Thermo # 23225). Lysis buffer was used to normalize lysates by protein content and all lysates were then investigated by sandwich ELISA by means of DNA-PK-specific antibodies (Abcam ab44815: total DNA-PK; ab124918: phosphoserine-2056 DNA-PK) in sandwich ELISA format on the MSD S600MM platform (MesoScale Discovery). % inhibition was calculated for all data points: =1−(DATA_PT−AVERAGE(DMSO controls))/(AVERAGE(NCS controls)−AVERAGE(DMSO controls)). Logarithm of the molar concentration of compound was plotted against percent inhibition to calculate IC50 values, with curve fit settings for data fit to log(inhibitor) vs. normalized response—Variable slope using curve fit software (GraphPad Prism).

Compound | IC50 [nM]
CS(=O)(=O)Nc1cnc2cc(N3CCOCC3)nc(O[C@H]3CC[C@@H](Nc4nccnc4C#N)CC3)c2c1 [LFA1032, N-[5-[4-[(3-cyanopyrazin-2-yl)amino]cyclohexoxy]-7-morpholino-1,6-naphthyridin-3-yl]methanesulfonamide] | < 100
CS(=O)(=O)Nc1cnc2cc(N3CCOCC3)nc(O[C@H]3CC[C@@H](Nc4ccnc(C#N)n4)CC3)c2c1 [LFA1033, N-[5-[4-[(2-cyanopyrimidin-4-yl)amino]cyclohexoxy]-7-morpholino-1,6-naphthyridin-3-yl]methanesulfonamide] | 100 to 1000
CS(=O)(=O)Nc1cnc2cc(N3CCOCC3)nc(O[C@H]3CC[C@@H](Nc4ccccn4)CC3)c2c1 [LFA1034, N-[7-morpholino-5-[4-(2-pyridylamino)cyclohexoxy]-1,6-naphthyridin-3-yl]methanesulfonamide] | < 100
CS(=O)(=O)Nc1cnc2cc(N3CCOCC3)nc(O[C@H]3CC[C@@H](Nc4ccnc(C(F)(F)F)n4)CC3)c2c1 [LFA1035, N-[7-morpholino-5-[4-[[2-(trifluoromethyl)pyrimidin-4-yl]amino]cyclohexoxy]-1,6-naphthyridin-3-yl]methanesulfonamide] | 100 to 1000
CS(=O)(=O)Nc1cnc2cc(N3CCOCC3)nc(O[C@H]3CC[C@@H](Nc4cnc(C#N)cn4)CC3)c2c1 [LFA1036, N-[5-[4-[(5-cyanopyrazin-2-yl)amino]cyclohexoxy]-7-morpholino-1,6-naphthyridin-3-yl]methanesulfonamide] | < 100
CS(=O)(=O)Nc1cnc2cc(N3CCOCC3)nc(O[C@H]3CC[C@@H](Nc4cnc(C(F)(F)F)cn4)CC3)c2c1 [LFA1037, N-[7-morpholino-5-[4-[[5-(trifluoromethyl)pyrazin-2-yl]amino]cyclohexoxy]-1,6-naphthyridin-3-yl]methanesulfonamide] | < 100
COc1nc(NC2CCC(Oc3nc(N4CCOCC4)cc4ncc(NS(C)(=O)=O)cc34)CC2)ncc1C#N (stereo not shown) [LFA1038, N-[5-[4-[(5-cyano-4-methoxy-pyrimidin-2-yl)amino]cyclohexoxy]-7-morpholino-1,6-naphthyridin-3-yl]methanesulfonamide] | 100 to 1000
Cc1nc(N[C@H]2CC[C@@H](Oc3nc(N4CCOCC4)cc4ncc(NS(C)(=O)=O)cc34)CC2)ncc1F [LFA1039, N-[5-[4-[(5-fluoro-4-methyl-pyrimidin-2-yl)amino]cyclohexoxy]-7-morpholino-1,6-naphthyridin-3-yl]methanesulfonamide;2,2,2-trifluoroacetic acid] | < 100
COc1nc(N[C@H]2CC[C@@H](Oc3nc(N4CCOCC4)cc4ncc(NS(C)(=O)=O)cc34)CC2)ncc1C [LFA1040, N-[5-[4-[(4-methoxy-5-methyl-pyrimidin-2-yl)amino]cyclohexoxy]-7-morpholino-1,6-naphthyridin-3-yl]methanesulfonamide] | 100 to 1000
CN(C)c1ccnc(N[C@H]2CC[C@@H](Oc3nc(N4CCOCC4)cc4ncc(NS(C)(=O)=O)cc34)CC2)n1 [LFA1041, N-[5-[4-[[4-(dimethylamino)pyrimidin-2-yl]amino]cyclohexoxy]-7-morpholino-1,6-naphthyridin-3-yl]methanesulfonamide] | 100 to 1000
CS(=O)(=O)Nc1cnc2cc(N3CCOCC3)nc(O[C@H]3CC[C@@H](Nc4nccc(C#N)n4)CC3)c2c1 [LFA1042, N-[5-[4-[(4-cyanopyrimidin-2-yl)amino]cyclohexoxy]-7-morpholino-1,6-naphthyridin-3-yl]methanesulfonamide;2,2,2-trifluoroacetic acid] | < 100
Cc1cc(C#N)nc(N[C@H]2CC[C@@H](Oc3nc(N4CCOCC4)cc4ncc(NS(C)(=O)=O)cc34)CC2)n1 [LFA1043, N-[5-[4-[(4-cyano-6-methyl-pyrimidin-2-yl)amino]cyclohexoxy]-7-morpholino-1,6-naphthyridin-3-yl]methanesulfonamide;2,2,2-trifluoroacetic acid] | < 100
CS(=O)(=O)Nc1cnc2cc(N3CCOCC3)nc(O[C@H]3CC[C@@H](Nc4nccc(C(F)(F)F)n4)CC3)c2c1 [LFA1044, N-[7-morpholino-5-[4-[[4-(trifluoromethyl)pyrimidin-2-yl]amino]cyclohexoxy]-1,6-naphthyridin-3-yl]methanesulfonamide] | 100 to 1000
CS(=O)(=O)Nc1cnc2cc(N3CCOCC3)nc(O[C@H]3CC[C@@H](Nc4cnccn4)CC3)c2c1 [LFA1045, N-[7-morpholino-5-[4-(pyrazin-2-ylamino)cyclohexoxy]-1,6-naphthyridin-3-yl]methanesulfonamide;2,2,2-trifluoroacetic acid] | < 100
Cc1ccnc(N[C@H]2CC[C@@H](Oc3nc(N4CCOCC4)cc4ncc(NS(C)(=O)=O)cc34)CC2)n1 [LFA1047] | < 100
Cc1cnc(N[C@H]2CC[C@@H](Oc3nc(N4CCOCC4)cc4ncc(NS(C)(=O)=O)cc34)CC2)nc1 [LFA1048, N-[5-[4-[(5-methylpyrimidin-2-yl)amino]cyclohexoxy]-7-morpholino-1,6-naphthyridin-3-yl]methanesulfonamide] | < 100
CN(C)Cc1cnc(N[C@H]2CC[C@@H](Oc3nc(N4CCOCC4)cc4ncc(NS(C)(=O)=O)cc34)CC2)nc1 [LFA1049, N-[5-[4-[[5-[(dimethylamino)methyl]pyrimidin-2-yl]amino]cyclohexoxy]-7-morpholino-1,6-naphthyridin-3-yl]methanesulfonamide] | < 100
Cc1ccc(N[C@H]2CC[C@@H](Oc3nc(N4CCOCC4)cc4ncc(O)cc34)CC2)nc1 [LFA1051, 5-[4-[(5-methyl-2-pyridyl)amino]cyclohexoxy]-7-morpholino-1,6-naphthyridin-3-ol] | 100 to 1000
Cc1cnc(N[C@H]2CC[C@@H](Oc3nc(N4CCOCC4)cc4ncc(O)cc34)CC2)c(C)c1 [LFA1052, 5-[4-[(3,5-dimethyl-2-pyridyl)amino]cyclohexoxy]-7-morpholino-1,6-naphthyridin-3-ol] | 1000 to 10000
Cc1ccc(N[C@H]2CC[C@@H](Oc3nc(N4CCOCC4)cc4ncc(O)cc34)CC2)cn1 [LFA1053, 5-[4-[(6-methyl-3-pyridyl)amino]cyclohexoxy]-7-morpholino-1,6-naphthyridin-3-ol] | 100 to 1000
Oc1cnc2cc(N3CCOCC3)nc(O[C@H]3CC[C@@H](Nc4ncc(F)cc4F)CC3)c2c1 [LFA1054, 5-[4-[(3,5-difluoro-2-pyridyl)amino]cyclohexoxy]-7-morpholino-1,6-naphthyridin-3-ol] | 100 to 1000

Other lines, results leading:

IC50 [nM] | Compound
100 to 1000 | Cc1ccncc1N[C@H]1CC[C@@H](Oc2nc(N3CCOCC3)cc3ncc(O)cc23)CC1 [LFA1055, 5-[4-[(4-methyl-3-pyridyl)amino]cyclohexoxy]-7-morpholino-1,6-naphthyridin-3-ol]
< 100 | Oc1cnc2cc(N3CCOCC3)nc(O[C@H]3CC[C@@H](Nc4ccccn4)CC3)c2c1 [LFA1056, 7-morpholino-5-[4-(2-pyridylamino)cyclohexoxy]-1,6-naphthyridin-3-ol]
< 100 | Cc1cc(C)nc(N[C@H]2CC[C@@H](Oc3nc(N4CCOCC4)cc4ncc(O)cc34)CC2)n1 [LFA1057, 5-[4-[(4,6-dimethylpyrimidin-2-yl)amino]cyclohexoxy]-7-morpholino-1,6-naphthyridin-3-ol]
100 to 1000 | CN(c1ncccn1)[C@H]1CC[C@@H](Oc2nc(N3CCOCC3)cc3ncc(O)cc23)CC1 [LFA1058, 5-[4-[methyl(pyrimidin-2-yl)amino]cyclohexoxy]-7-morpholino-1,6-naphthyridin-3-ol]
100 to 1000 | Cc1cc(C#N)nc(N[C@H]2CC[C@@H](Oc3nc(N4CCOCC4)cc4ncc(O)cc34)CC2)n1 [LFA1059, 2-[[4-[(3-hydroxy-7-morpholino-1,6-naphthyridin-5-yl)oxy]cyclohexyl]amino]-6-methyl-pyrimidine-4-carbonitrile]
< 100 | CN(C)Cc1cnc(N[C@H]2CC[C@@H](Oc3nc(N4CCOCC4)cc4ncc(O)cc34)CC2)nc1 [LFA1060, 5-[4-[[5-[(dimethylamino)methyl]pyrimidin-2-yl]amino]cyclohexoxy]-7-morpholino-1,6-naphthyridin-3-ol]
< 100 | CS(=O)(=O)Nc1cnc2cc(N3CCOCC3)nc(O[C@H]3CC[C@@H](n4cc(F)cn4)CC3)c2c1 [LFA1061, N-[5-[4-(4-fluoropyrazol-1-yl)cyclohexoxy]-7-morpholino-1,6-naphthyridin-3-yl]methanesulfonamide]
100 to 1000 | Cn1cc([C@H]2CC[C@@H](Oc3nc(N4CCOCC4)cc4ncc(NS(C)(=O)=O)cc34)CC2)cn1 [LFA1062, N-[5-[4-(1-methylpyrazol-4-yl)cyclohexoxy]-7-morpholino-1,6-naphthyridin-3-yl]methanesulfonamide]
10000 to 30000 | Cn1cc([C@H]2CC[C@H](Oc3nc(N4CCOCC4)cc4ncc(NS(C)(=O)=O)cc34)CC2)cn1 [LFA1063, N-[5-[4-(1-methylpyrazol-4-yl)cyclohexoxy]-7-morpholino-1,6-naphthyridin-3-yl]methanesulfonamide]
100 to 1000 | CS(=O)(=O)Nc1cnc2cc(N3CCOCC3)nc(O[C@H]3CC[C@@H](c4cnccn4)CC3)c2c1 [LFA1064, N-[7-morpholino-5-(4-pyrazin-2-ylcyclohexoxy)-1,6-naphthyridin-3-yl]methanesulfonamide]
